{"source": "ChEMBL document CHEMBL5728584", "about": "“Bicyclic amide compounds and methods of use thereof” (2021)", "target": "T1, Receptor-interacting serine/threonine-protein kinase 1 (Homo sapiens, UniProt Q13546)", "T1 sequence (Q13546 whole entry)": "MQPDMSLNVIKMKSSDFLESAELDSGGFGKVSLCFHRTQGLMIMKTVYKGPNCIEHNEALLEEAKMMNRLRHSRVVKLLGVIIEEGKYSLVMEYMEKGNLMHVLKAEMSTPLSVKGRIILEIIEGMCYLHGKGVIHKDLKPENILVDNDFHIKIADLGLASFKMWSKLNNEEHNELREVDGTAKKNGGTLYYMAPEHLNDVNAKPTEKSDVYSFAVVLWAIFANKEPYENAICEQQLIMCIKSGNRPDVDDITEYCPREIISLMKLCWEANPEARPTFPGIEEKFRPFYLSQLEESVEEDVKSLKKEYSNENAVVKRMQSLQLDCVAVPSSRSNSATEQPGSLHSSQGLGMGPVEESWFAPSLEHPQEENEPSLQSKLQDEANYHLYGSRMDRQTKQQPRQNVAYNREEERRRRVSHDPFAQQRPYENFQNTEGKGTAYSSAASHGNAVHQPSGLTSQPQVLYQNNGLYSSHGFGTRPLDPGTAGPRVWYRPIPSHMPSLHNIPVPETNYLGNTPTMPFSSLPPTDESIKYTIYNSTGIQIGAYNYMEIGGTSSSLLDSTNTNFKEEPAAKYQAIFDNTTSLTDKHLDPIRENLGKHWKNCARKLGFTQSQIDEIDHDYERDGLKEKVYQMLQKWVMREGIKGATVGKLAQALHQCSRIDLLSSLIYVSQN", "test": "Biochemical Assay: The ability of the receptor interacting protein kinase (RIPK1) to catalyze the hydrolysis of adenosine-5′-triphosphate (ATP) is monitored using the Transcreener ADP (adenosine-5′-diphosphate) assay (BellBrook Labs). Purified human RIP1 kinase domain (2-375) (50 nM) derived from a baculovirus-infected insect cell expression system is incubated with test compounds for 2 hours in 50 mM Hepes buffer (pH 7.5) containing 30 mM MgCl2, 1 mM dithiothreitol, 50 uM ATP, 0.002% Brij-35, and 0.5% dimethyl sulfoxide (DMSO). Reactions are quenched by the addition of 1× Bell Brooks Stop buffer B (20 mM Hepes (ph7.5), 40 mM ethylenediaminetetraacetic acid and 0.02% Brij-35) containing an additional 12 mM EDTA and 55 ug/mL ADP2 antibody and 4 nM ADP-AlexaFluor® 633 tracer. The tracer bound to the antibody is displaced by the ADP generated during the RIP1K reaction, which causes a decrease in fluorescence polarization that is measured by laser excitation at 633 nm with a FP microplate reader M1000.", "data": [{"molecule": "O=C(c1nc2n(n1)CCOC2c1ccccc1)N1CC(F)C1", "note": "(racemic)", "values": [{"measurement": "Ki", "value": 2100, "unit": "nM"}]}]}
